Test results reported in PMC8469748, “A Method for Rapid Screening, Expression, and Purification of Antimicrobial Peptides” (Microorganisms, 2021).
Entries after “also recorded” stand apart in the source; their conditions may differ.

Key:
[1] = tested on: E. coli DH5α; test: Inhibition zone test (agarose plate, Oxford cup); format: cell-based
Procedure: To measure AMP activity, the agarose plate method was employed. Microorganisms for inhibition testing were activated, 3–5 single colonies were picked and placed in liquid LB medium, cultured on a shaker at 37 °C for 6 h. Solid LB medium was melted by heating, 500 μL of liquid bacterial culture was added for every 100 mL of medium after cooling slightly, and the mixture was poured into a bacterial plate to solidify. Oxford cups were inserted into the solidified mixed bacterial plate, while being careful not to penetrate the medium completely, so as not to affect the penetration of the test liquid on the plate. Attention was paid to the spacing between the Oxford cups. Corresponding Oxford cups were marked and positive/negative controls (100 μL each) were added. Plates were incubated at 37 °C overnight to observe the antibacterial effects.
The E. coli DH5α mixed bacteria plate was prepared as described above. Two negative controls (HRV 3C Cleavage Buffer and 1 M NaCl) and a positive control (2 mg/mL ampicillin) were included.

[2] = tested on: E. coli; test: MIC test (96-well plate, OD600); format: cell-based; conditions: for minimum concentration that inhibited an increase in the OD600 of the bacterial solution (MIC): 96-well plate, final 128 to 0.25 mg/L; for inhibition activity against testing microorganisms (MIC test): AMP expressed and purified in E. coli, up to 128 mg/L
Procedure: When measuring the minimum inhibitory concentration (MIC) of the expressed and purified AMPs, we performed the test according to the Clinical and Laboratory Standards Association. Specifically, microorganisms to be tested were activated, and five colonies were picked and separately cultured into liquid medium on a shaker (220 rpm) at 37 °C until the absorbance at 600 nm (OD600) reached 0.13–0.17; thus, corresponding to a biomass concentration of ~1 × 10^8 colony-forming units (CFU)/mL. Samples for testing were diluted to 4 mM, and two-fold serial dilutions were performed in a 96-well plate, with the concentration ranging from 100 to 0.195 μM. Each dilution (50 μL) was performed in duplicate. Next, 50 μL of microbial culture containing ~1 × 10^6 CFU/mL was added to each well. After incubating overnight at 37 °C, OD600 was measured using a microplate spectrophotometer.
Figure 8 The schematic diagram of a 96-well plate measuring MIC (data taken from three parallel experiments). Horizontal direction is AMP 1, 2, 6, 13, 16 test rows; Vertical direction 1–10 is the final concentration of 128 mg/L to 0.25 mg/L of these AMPs, respectively; 11 is the negative control; 12 is a positive control, the 20 mg/L ampicillin.
Figure 13B is a schematic diagram of the 96-well plate MIC experiment (data are from three parallel replicates). The horizontal direction is AMP13 from P. pastoris, the vertical direction is the final peptide concentration (128 mg/L to 0.25 mg/L), 11 is the negative control and 12 is the positive control (20 mg/L ampicillin).

[3] = AMP expressed in E. coli and purified, mixed bacteria LB agar plate, Oxford cup, 100 μL liquid per cup, 37 °C overnight
[4] = AMP expressed in E. coli, two-fold dilutions, overnight 37 °C, three parallel experiments

Row | Molecule | Inhibition zone ([1]; AMP13 produced by P. pastoris (PZEAP13), E. coli DH5α mixed bacteria plate, Oxford cup, 100 μL) | Inhibition zone [1, 3] | MIC ([2]; AMP13 from P. pastoris, equated from 16 mg/L) | minimum concentration that inhibited an increase in the OD600 of the bacterial solution (MIC) ([2]; AMP13 produced by P. pastoris (PZEAP13), three parallel replicates) | effective MIC ([2]; AMP13 purified from P. pastoris, discussion) | minimum concentration that inhibited an increase in the OD600 of the bacterial solution (MIC) [2, 4] | inhibition activity against testing microorganisms (MIC test) [2] | Inhibition zone ([1]; positive control, 2 mg/mL ampicillin, E. coli DH5α mixed bacteria plate, test of P. pastoris AMP13) | Inhibition zone ([1]; positive control, ampicillin 200 mg/L, 100 μL per Oxford cup, plates of E. coli-derived AMPs)
1 | GFCRCLCRRGVCRCICTR [AMP13, antimicrobial peptide selected from the AMP library website, expressed as CL7 fusion in E. coli and in P. pastoris, released by HRV 3C protease] | showed inhibition activity; also recorded: clear circle of inhibition | there was an inhibition zone | 8.1 µM | 16 mg/L | 16 mg/L | 32 mg/L | – | – | –
2 | VFQFLGKIIHHVGNFVHGFSHVF [AMP6, antimicrobial peptide selected from the AMP library website, expressed as CL7 fusion in E. coli and released by HRV 3C protease] | – | no inhibition zones | – | – | – | > 128 mg/L | no inhibition activity; also recorded: did not exhibit detectable antibacterial activity | – | –
3 | ILPWKWPWWPWRR [AMP2, antimicrobial peptide selected from the AMP library website, expressed as CL7 fusion in E. coli and released by HRV 3C protease] | – | no inhibition zones | – | – | – | > 128 mg/L | no inhibition activity; also recorded: did not exhibit detectable antibacterial activity | – | –
4 | DSHAKRHHGYKRKFHEKHHSHRGY [AMP16, antimicrobial peptide selected from the AMP library website, expressed as CL7 fusion in E. coli and released by HRV 3C protease] | – | there was an inhibition zone | – | – | – | 64 mg/L | – | – | –
5 | CC1(C)S[C@@H]2[C@H](NC(=O)[C@H](N)c3ccccc3)C(=O)N2[C@H]1C(=O)O [ampicillin, reference compound] | – | – | – | – | – | – | – | there was an inhibition zone | there was an inhibition zone
6 | ITPATPFTPAIITEITAAVIA [AMP1, antimicrobial peptide selected from the AMP library website, expressed as CL7 fusion in E. coli and released by HRV 3C protease] | – | no inhibition zones | – | – | – | 128 mg/L | no inhibition activity; also recorded: did not exhibit detectable antibacterial activity | – | –
